The text below walks through data of ChEMBL document CHEMBL5113487, “Novel anilinopyrimidine derivatives as potential EGFRT790M/C797S Inhibitors: Design, Synthesis, biological activity study” (Bioorg Med Chem, 2022).

For series [1], the target named is Epidermal growth factor receptor (Homo sapiens, UniProt P00533, C797S/EX18DEL/T790M). As to the kind of experiment: Inhibition of EGFR del18/T790M/C797S triple mutant (unknown origin) using TK as substrate incubated for 120 mins in the presence of ATP by HTRF assay. For orientation: TR-FRET usually uses a lanthanide donor and a delayed reading to cut background.

The target in series [2] is Epidermal growth factor receptor (Homo sapiens, UniProt P00533, C797S/L858R/T790M). As to the kind of experiment: Inhibition of EGFR L858R/T790M/C797S triple mutant (unknown origin) using TK as substrate incubated for 120 mins in the presence of ATP by HTRF assay.
The test system of another series is BaF3. As to the kind of experiment: Antiproliferative activity against mouse BaF3 cells harboring del18/T790M/C797S triple mutant assessed as cell growth inhibition incubated for 72 hrs by cell titre glo luminescence assay. The format is functional, cell-based. The conditions noted are these: BaF3, 72 h.
Series [3] is described as follows: Cmax in mouse at 5 mg/kg measured upto 24 hrs by LC-MS/MS analysis. Type of series: ADME, organism-based. Set-up: time < 24 hrs, dose 5 mg/kg. The settings on record: in vivo.
A short description of series [4]: AUC(0 to t) in mouse at 5 mg/kg measured upto 24 hrs by LC-MS/MS analysis. The format is ADME, organism-based. Set-up: time < 24 hrs, dose 5 mg/kg. The settings on record: in vivo.
The nature of series [5]: AUC(0 to infinity) in mouse at 5 mg/kg measured upto 24 hrs by LC-MS/MS analysis. Type of series: ADME, organism-based. On the set-up: dose 5 mg/kg, time < 24 hrs. The settings on record: in vivo.
A short description of series [6]: Half-life in mouse at 5 mg/kg measured upto 24 hrs by LC-MS/MS analysis. The settings on record: in vivo. The format is ADME, organism-based.
Series [7] in a line: MRT in mouse at 5 mg/kg measured upto 24 hrs by LC-MS/MS analysis. Type of series: ADME, organism-based. The conditions noted are these: in vivo.
For series [8], the system named is Epidermal growth factor receptor (Homo sapiens), P00533 [UNDEFINED MUTATION]. As to the kind of experiment: Potency index, ratio of brigatinib IC50 to test compound IC50 for inhibition of EGFR del18/T790M/C797S triple mutant (unknown origin) using TK as substrate incubated for 120 mins in the presence of ATP by HTRF assay.
The test system of series [9] is Epidermal growth factor receptor (Homo sapiens), P00533 [L858R,T790M,C797S]. As to the kind of experiment: Potency index, ratio of brigatinib IC50 to test compound IC50 for inhibition of EGFR L858R/T790M/C797S triple mutant (unknown origin) using TK as substrate incubated for 120 mins in the presence of ATP by HTRF assay.
Series [10] deals with Epidermal growth factor receptor (Homo sapiens, UniProt P00533). As to the kind of experiment: Inhibition of wild type EGFR (unknown origin) using TK as substrate incubated for 120 mins in the presence of ATP by HTRF assay.
For the next series, the system named is A-431. As to the kind of experiment: Antiproliferative activity against human A-431 cells assessed as cell growth inhibition incubated for 72 hrs by cell titre glo luminescence assay. Type of series: functional, cell-based. The settings on record: A-431, 72 h.

pIC50: −log10 of the molar value.

The term pIC50 denotes the negative decadic logarithm of the IC50, by convention in mol/L. As usually defined, the Cmax is the highest concentration seen after dosing. By AUC(0-t) is commonly meant exposure summed from dosing to a finite time, without extrapolation to infinity. Broadly, the AUC(0-inf) is total exposure, with the tail of the curve extrapolated. As usually defined, the half-life is how long it takes for the measured level to halve. A high value points to slow loss. In general, MRT refers to the average time that molecules of a dose stay in the body.

On to `CCc1cc(Nc2ncc(Br)c(Nc3ccc4c(c3P(C)(C)=O)OCCO4)n2)c(OC)cc1N1CCC(N2CC(N(C)C)C2)CC1`, for which the values for the pIC50 (in series [1]; in [2]; with BaF3) were 10.10, 10.10 and 8.10, respectively. Also, the concentration in [3] peaked (Cmax) at 2110 ng/mL. Besides, the AUC(0-t) at 24 h in [4] was determined as 21000 ng·h/mL. Also, the AUC(0-inf) in series [5] stood at 21400 ng·h/mL. In [6], this molecule showed a half-life of 4 h. The same molecule came in with an MRT in series [7] of 6.3 h.
In the case of `CCc1cc(Nc2ncc(Br)c(Nc3ccc4nccnc4c3P(C)(C)=O)n2)c(OC)cc1N1CCC(N2CC(N(C)C)C2)CC1`, the negative logarithm of the IC50 (pIC50) in [1] was 9.96; in series [2], 10.10; with BaF3, 7.80. For the same molecule, the Ratio IC50 was 7 in [8] and 40 in [9].
`CCc1cc(Nc2ncc(Br)c(Nc3ccc4c(c3P(C)(C)=O)OCCO4)n2)c(OC)cc1N1CCC(N2CC(CC#N)C2)CC1`: the pIC50 in series [1] is 9.31; in series [2], 9.39; in series [10] it was 6.38; with BaF3, 8.15.
In the case of `CCOC1CN(C2CCN(c3cc(OC)c(Nc4ncc(Br)c(Nc5ccc6nccnc6c5P(C)(C)=O)n4)cc3C)CC2)C1`, the pIC50 in [1] was 9.19; in series [2] it was 9.37; in series [10], 6.19; with BaF3, 7.54; with A-431, 6.37.
With `COc1cc(N2CCC(N3CC[C@H](N(C)C)C3)CC2)c(C)cc1Nc1ncc(Br)c(Nc2ccc3c(c2P(C)(C)=O)OCCO3)n1`, the pIC50 in series [1] is 9.92; in series [2] it was 9.82; in the series with BaF3, 7.55.
In the case of `COc1cc(N2CCC(N3CC(N(C)C)C3)CC2)c(C)cc1Nc1ncc(Br)c(Nc2ccc3c(c2P(C)(C)=O)OCCO3)n1`, the negative-log IC50 (pIC50) is 9.52 in series [1], 9.66 in series [2] and 7.89 with BaF3. In addition, the highest concentration (Cmax) in series [3] is 1680 ng/mL. Also, in series [4], the AUC(0-t) at 24 h was 16400 ng·h/mL. Also, the AUC(0-inf) in series [5] came to 16500 ng·h/mL. The molecule also had a half-life in series [6] of 5.6 h. In addition, the mean residence time MRT in series [7] was determined as 6 h.
With `COc1cc(N2CCC(N3CCCOCC3)CC2)c(C)cc1Nc1ncc(Br)c(Nc2ccc3c(c2P(C)(C)=O)OCCO3)n1`, the figures for the pIC50 (in series [1]; in [2]; in the series on BaF3) were 9.89, 9.72 and 7.70, respectively.
With `CCc1cc(Nc2ncc(Br)c(Nc3ccc4c(c3P(C)(C)=O)OCO4)n2)c(OC)cc1N1CCC(N2CC(N(C)C)C2)CC1`, the figures for the negative logarithm of the IC50 (pIC50) (in [1]; in [2]; in the series with BaF3) were 9.40, 9.82 and 7.85, respectively. Moreover, the Cmax in [3] stood at 1470 ng/mL. Also, the AUC(0-t) at 24 h in series [4] was 12300 ng·h/mL. Moreover, the total exposure AUC(0-inf) in series [5] is 12500 ng·h/mL. In [6], the half-life was 4.2 h. The same molecule had a mean residence time (MRT) in series [7] of 6 h.
As for `CCO[C@@H]1CCN(C2CCN(c3cc(OC)c(Nc4ncc(Br)c(Nc5ccc6c(c5P(C)(C)=O)OCCO6)n4)cc3C)CC2)C1`, the pIC50 in [1] was 9.55; in [2] it was 9.39; in the series on BaF3, 7.52. Also, the concentration in series [3] peaked (Cmax) at 1260 ng/mL. This molecule also returned an AUC(0-t) at 24 h in series [4] of 11100 ng·h/mL. The AUC(0-inf) in [5] amounted to 11200 ng·h/mL. Also, the half-life in series [6] is 3.5 h. The molecule further displayed an MRT in [7] of 5.5 h.
As for `CCc1cc(Nc2ncc(Br)c(Nc3ccc4ncnn4c3P(C)(C)=O)n2)c(OC)cc1N1CCC(N2CC(COC)C2)CC1`, the pIC50 is 10.00 in series [1]; 9.08 in series [2]; under 6.30 in [10]; 7.43 in the series with BaF3; 6.15 in the series on A-431.
In the case of `COc1cc(N2CCC(N3CC(N(C)C)C3)CC2)c(C)cc1Nc1ncc(Br)c(Nc2ccc3nccnc3c2P(C)(C)=O)n1`, the pIC50 was 10.22 in [1], 10.05 in series [2] and 7.89 with BaF3.
Consider `CCc1cc(Nc2ncc(Br)c(Nc3ccn4ncnc4c3P(C)(C)=O)n2)c(OC)cc1N1CCC(N2CCN(CC)CC2)CC1`, for which the pIC50 in series [1] is 10.00; in series [2] it was 9.17; in series [10], under 6.30; in the series with BaF3, 7.47; in the series with A-431 it was 6.14.
Turning to `CCN(C)C1CN(C2CCN(c3cc(OC)c(Nc4ncc(Br)c(Nc5ccc6c(c5P(C)(C)=O)OCCO6)n4)cc3C)CC2)C1`, the figures for the pIC50 (in series [2]; in [10]; in the series on BaF3) were 9.55, under 6.30 and 7.46, respectively.
`COc1cc(N2CCC(N3CCCN(C)CC3)CC2)c(C)cc1Nc1ncc(Br)c(Nc2ccc3c(c2P(C)(C)=O)OCCO3)n1`: the negative-log IC50 (pIC50) in series [1] is 10.30; in series [2], 10.00; with BaF3, 7.62.
Regarding `CCOC1CN(C2CCN(c3cc(OC)c(Nc4ncc(Br)c(Nc5ccc6ncnn6c5P(C)(C)=O)n4)cc3CC)CC2)C1`, the pIC50 in series [1] was 9.05; in series [2], 9.17; in [10] it was under 6.30; in the series on BaF3, 7.36; with A-431 it was 5.99.
As to `CCc1cc(Nc2ncc(Br)c(Nc3ccc4c(c3P(C)(C)=O)OCCO4)n2)c(OC)cc1N1CCC(N2CC(COC)C2)CC1`, the pIC50 is 9.82 in series [1], 9.92 in series [2] and 7.92 in the series with BaF3.
As for `CCc1cc(Nc2ncc(Br)c(Nc3ccn4ncnc4c3P(C)(C)=O)n2)c(OC)cc1N1CCC(N2CCOCC2)CC1`, the negative logarithm of the IC50 (pIC50) in series [1] was 9.74; in series [2], 9.03; in series [10], under 6.30; in the series on BaF3, 7.40; in the series on A-431, 5.89.
In the case of `CCc1cc(Nc2ncc(Br)c(Nc3ccc4nccnc4c3P(C)(C)=O)n2)c(OC)cc1N1CCC(N2CCCN(C)CC2)CC1`, the pIC50 in [1] is 9.08; in series [2] it was 9.57; in series [10] it was 5.52; in the series with BaF3 it was 8.05; with A-431, 6.31.
For the molecule `CCOC1CN(C2CCN(c3cc(OC)c(Nc4ncc(Br)c(Nc5ccc6c(c5P(C)(C)=O)OCCO6)n4)cc3C)CC2)C1`, the pIC50 in the series with BaF3 is 7.49. The molecule further returned a Cmax in series [3] of 2030 ng/mL. The area under the curve AUC(0-t) at 24 h in [4] came out at 25200 ng·h/mL. Moreover, the AUC(0-inf) in [5] amounted to 25300 ng·h/mL. This molecule had a half-life in series [6] of 3.2 h. Further, the mean residence time MRT in series [7] amounted to 6.1 h.
